Laboratory results from patent US9040580B2, “Method for prevention or treatment of degenerative neurologial brain disorders” (B[…]., LTD., priority 2010, dated 2015).

Experiments:
[1] = established by the World Heath Organization (WHO); cited from earlier work
[2] = tested on: Parkinson's disease model (6-OHDA) C57BL/6 mouse; test: Rotarod test in Parkinson's disease model; assay type: in vivo; settings: FIG. 7
Experimental: In order to identify whether methylparaben (MP) can improve movement dysfunction of the Parkinson's disease model, a rotarod test was performed and the test results were evaluated on day 14 after the surgery of Parkinson's disease. The rotarod test refers to a test of measuring a residence time when a mouse was riding on a rotarod without falling off. A rotation speed of the rotarod was set to 10 rpm and the rotarod test was performed over 10 minutes after an adaptation time of 5 minutes. A riding time on the rotarod was repeatedly measured three times and a mean value was calculated, then, a final value was represented in the form of the mean value±mean error (n=6).

SH-SY5Y cells [3] = test: Cell protective activity against active oxygen (hydrogen peroxide), WST-1; assay type: cell-based, human; settings: for apoptosis caused by active oxygen: 4 h pre-culture, then 300 mM H2O2 24 h, FIG. 4
Experimental: (§1) In order to identify whether methylparaben (MP) in cultured cells has cell protective effects against active oxygen, excitatory brain neurotransmitter, and α-synuclein, a cell protective activity test was performed. These materials, that is, the active oxygen, excitatory brain neurotransmitter, and α-synuclein has been indicated as a cause of extensive damage of nerve cells with respect to Parkinson's disease and other degenerative cerebral disorders.
(§2) Each well of a 96-well plate was provided with SH-SY5Y cells (5×10^3 cells; 10% FBS added DMEM medium) derived from human nerve cancer and cultured at 37° C. for 24 hours. After this, 1, 10 and 100 ng/ml of methylparaben (MP), 50 μM Vitamin E (Vit E) or 10 μM MK-801 was added and further cultured for 4 hours. Alternatively, as a control group, a culture solution without the addition of a drug was prepared. After culturing for 4 hours, 300 mM hydrogen peroxide solution (H2O2) generating active oxygen, 2 mM glutamate as an excitatory brain neurotransmitter, and 2 μM α-synuclein were further added and cultured for 24 hours. After culturing, the cultured solution was washed using phosphate buffered saline (PBS). 100 μl cultured solution provided with a 10% cell proliferation reagent (WST-1) was poured into an incubator at 37° C. and reacted for 1 hour under […], and then, absorbance was measured at 450 nm.

SH-SY5Y cells [4] = test: Cell protective activity against excitatory brain neurotransmitter (glutamate), WST-1; assay type: cell-based, human; settings: for apoptosis caused by excitatory brain neurotransmitter: 4 h pre-culture, then 2 mM glutamate 24 h, FIG. 5
Experimental: as §1, §2

[5] = tested on: Parkinson's disease model (6-OHDA) C57BL/6 mouse; test: Observation of rotary movement (apomorphine-induced) in Parkinson's disease model; settings: FIG. 8
[6] = Hydroxyl radical removal ability test (Fenton reaction, DMPO spin trap, ESR); assay type: biochemical
Experimental: In order to identify active oxygen removal ability of methylparaben (MP), Fenton reaction [H2O2+FeSO4] was performed to derive hydroxyl radicals. The derived hydroxyl radicals were entrapped by a nitrone spin trap (DMPO) and the entrapped DMPO-OH addition product was measured by an electron spin resonance (ESR) spectrometer. ESR spectrum was measured by reacting a reaction reagent [phosphate buffer solution (pH 7.4); 4.5 M DMPO 10 μl, 0.6 mM FeSO4 75 μl, 2.8 M H2O2 75 μl], methylparaben and vitamin C (VitC), then, using an ESR spectrometer (JES-FA, JEOL, Japan), and the measured results are shown in FIG. 2. In this regard, the ESR spectrometer carried out analysis using some parameters [magnetic field 340 mT, power 1.00 mW, frequency 9.19 GHz, amplitude modulation 0.2 mT, gain 200, scanning time 2 minutes, scanning width 10 mT, time constant 0.03 seconds, and temperature 20° C.].

SH-SY5Y cells [7] = test: Cell protective activity against α-synuclein, WST-1; assay type: cell-based, human; settings: for apoptosis caused by α-synuclein: 4 h pre-culture, then 2 μM α-synuclein 24 h, FIG. 6
Experimental: as §1, §2

[8] = tested on: Parkinson's disease model (6-OHDA) C57BL/6 mouse; test: Y-shaped maze test in Parkinson's disease model; assay type: in vivo; settings: FIG. 9
Experimental: An Y-shaped maze measurement device has three extending arms to form an alphabet ‘Y’ shape wherein each arm has a length of 35 cm, height of 9 cm, and width of 5 cm, and all arms are formed at the same angle. After positioning a test animal to face an end of one of the arms of the Y-shaped maze, the animal was allowed to freely go around the arms for 8 minutes. Motions of the animal were recorded and, when the animal with hind legs moved inside the arm, the animal was deemed to pass the arm (‘arm entry’). Movement of the animal was represented by the number of crossings (‘alternation’) and one alternation is defined to be when the animal continuously passes three arms. A quantity of spontaneous crossing movement is a percentage ratio of a practical alternation and a maximum possible alternation (that is, a total alternation −2).

[9] = tested on: Parkinson's disease model (6-OHDA) C57BL/6 mouse; test: Passive avoidance test in Parkinson's disease model; assay type: in vivo; settings: FIG. 10
Experimental: As a test device, a shuttle box having a size of 50×15×40 cm in width×length×height and being provided with an electrically conductive grid was used. The box was separated into two rooms, each having a size of 25×15 cm, by a connecting guillotine door (10×10 cm). Each room was illuminated using a 20 W light bulb. Noise was 60 dB or less and the test was performed in a room with very low illumination.
A mouse was placed in one room (A) of the two rooms separated by the door and the door was opened while turning on a light at 1500 lux. By doing this, the mouse looked around the room and entered the other room (B) without illumination. At this time, the door was operated to be automatically closed. By measuring a time taken from the opening of the door while turning on the light, to the closing of the door, a latency time was determined. The mouse may pass from room A to room B if the above process is repeated. If the mouse crossed from room A into room B within 20 seconds by repeating the above described process, a training process was deemed to be completed. […]
The mouse may develop a memory of a relation between the dark room and the foot-shock. […] After 1 day, a time taken from placing the above mouse in room A just before the mouse crossed into room B when a light turned on, was measured. […]

[10] = 100 μg/kg i.p. everyday for 2 weeks
[11] = 200 μg/kg i.p. everyday for 2 weeks

Question: Which daily proper intake [1] does the source give for `CCOC(=O)c1ccc(O)cc1` [ethylparaben] here?
Answer: Its daily proper intake is 10 mg/kg.

Question: Which results are given for `COC(=O)c1ccc(O)cc1` [methylparaben]?
Answer: movement ability (riding time on rotarod) [2, 10]: significantly improving; movement ability (riding time on rotarod) [2, 11]: significantly improving; apoptosis caused by active oxygen (SH-SY5Y cells [3]; 10 ng/ml): significantly suppressed; apoptosis caused by active oxygen (SH-SY5Y cells [3]; 100 ng/ml): significantly suppressed; cell protective effect compared with positive control groups (SH-SY5Y cells [3]; 10 and 100 ng/ml, H2O2): substantially similar to 50 μM VitE or 10 μM MK-801; daily proper intake [1]: 10 mg/kg; apoptosis caused by excitatory brain neurotransmitter (SH-SY5Y cells [4]; 10 ng/ml): significantly suppressed; apoptosis caused by excitatory brain neurotransmitter (SH-SY5Y cells [4]; 100 ng/ml): significantly suppressed; cell protective effect compared with positive control groups (SH-SY5Y cells [4]; 10 and 100 ng/ml, glutamate): substantially similar to 50 μM VitE or 10 μM MK-801; rotary movement dysfunction (number of revolutions after apomorphine) [5, 10]: significantly improving; rotary movement dysfunction (number of revolutions after apomorphine) [5, 11]: significantly improving; amount of active oxygen (ESR, DMPO-OH) ([6]; adding methylparaben, Fenton reaction, pH 7.4, FIG. 2): reduced an amount of active oxygen; active oxygen inhibitory ability compared with VitC ([6]; methylparaben 100 μg/ml): substantially similar to that of VitC; active oxygen inhibitory ability ([6]; methylparaben added, in relation to concentration, FIG. 3, n=4): active oxygen inhibitory ability was increased; apoptosis caused by α-synuclein (SH-SY5Y cells [7]; 10 ng/ml): significantly suppressed; apoptosis caused by α-synuclein (SH-SY5Y cells [7]; 100 ng/ml): significantly suppressed; cell protective effect compared with positive control groups (SH-SY5Y cells [7]; 10 and 100 ng/ml, α-synuclein): substantially similar to 50 μM VitE or 10 μM MK-801; memory (spontaneous alternation, Y-shaped maze) [8, 10]: significantly improving; memory (spontaneous alternation, Y-shaped maze) [8, 11]: significantly improving; memory (latency time, passive avoidance) [9, 10]: significantly improving; memory (latency time, passive avoidance) [9, 11]: significantly improving
